Experimental data reported in ChEMBL document CHEMBL4052645, “Discovery of potent and efficacious pyrrolopyridazines as dual JAK1/3 inhibitors” (Bioorg Med Chem Lett, 2017).

Legend:
[1] = target: Serine/threonine-protein kinase MRCK beta (Homo sapiens) (UniProt Q9Y5S2); assay: Inhibition of human MRCKB (L56 to S417 residues) expressed in bacterial expression system assessed as residual activity at 50 nM by KINOMEscan assay relative to control
Plasmodium falciparum = assay: Inhibition of wild-type Plasmodium falciparum full length PFB0815W (M1 to S524 residues) expressed in mammalian expression system assessed as residual activity at 50 nM by Kinomescan method relative to control
[2] = target: Death-associated protein kinase 2 (Homo sapiens) (UniProt Q9UIK4); assay: Inhibition of wild-type human full length DAPK2 (M1 to S370 residues) expressed in bacterial expression system assessed as residual activity at 50 nM by Kinomescan method relative to control
Death-associated protein kinase 2 (Homo sapiens), sequence (Q9UIK4 whole entry, looked up, the tested form may be a part): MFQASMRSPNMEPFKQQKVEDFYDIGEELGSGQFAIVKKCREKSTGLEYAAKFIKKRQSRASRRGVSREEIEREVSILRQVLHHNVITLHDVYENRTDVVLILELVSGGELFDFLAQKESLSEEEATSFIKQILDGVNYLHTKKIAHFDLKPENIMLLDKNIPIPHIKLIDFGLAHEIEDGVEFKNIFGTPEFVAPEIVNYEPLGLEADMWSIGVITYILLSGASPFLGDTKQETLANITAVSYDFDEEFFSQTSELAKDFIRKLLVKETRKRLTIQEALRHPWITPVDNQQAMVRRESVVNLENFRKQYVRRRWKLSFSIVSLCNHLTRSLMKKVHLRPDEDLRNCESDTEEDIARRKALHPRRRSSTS

[3] = target: Homeodomain-interacting protein kinase 3 (Homo sapiens) (UniProt Q9H422); assay: Inhibition of wild-type human partial length HIPK3 (M153 to N562 residues) expressed in mammalian expression system assessed as residual activity at 50 nM by Kinomescan method relative to control
[4] = target: Serine/threonine-protein kinase PAK 4 (Homo sapiens) (UniProt O96013); assay: Inhibition of wild-type human partial length PAK4 (Q144 to R438 residues) expressed in bacterial expression system assessed as residual activity at 50 nM by Kinomescan method relative to control
Serine/threonine-protein kinase PAK 4 (Homo sapiens), sequence (O96013 whole entry, looked up, the tested form may be a part): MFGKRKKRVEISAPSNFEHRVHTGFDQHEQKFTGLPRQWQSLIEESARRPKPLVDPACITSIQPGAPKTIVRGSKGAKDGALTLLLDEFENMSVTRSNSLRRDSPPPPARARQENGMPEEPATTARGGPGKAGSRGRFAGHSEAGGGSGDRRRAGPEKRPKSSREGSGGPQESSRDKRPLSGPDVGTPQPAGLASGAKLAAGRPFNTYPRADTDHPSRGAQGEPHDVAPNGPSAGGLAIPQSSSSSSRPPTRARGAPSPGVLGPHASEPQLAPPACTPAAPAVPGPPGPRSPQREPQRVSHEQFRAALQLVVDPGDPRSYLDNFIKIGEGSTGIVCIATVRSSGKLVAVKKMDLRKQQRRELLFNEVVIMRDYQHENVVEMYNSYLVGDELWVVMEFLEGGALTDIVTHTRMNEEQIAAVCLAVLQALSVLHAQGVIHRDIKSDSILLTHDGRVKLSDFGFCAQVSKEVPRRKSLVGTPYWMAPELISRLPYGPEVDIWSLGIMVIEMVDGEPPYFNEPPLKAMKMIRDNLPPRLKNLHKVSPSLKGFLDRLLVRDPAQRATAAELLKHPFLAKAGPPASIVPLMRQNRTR

[5] = target: Serine/threonine-protein kinase MRCK alpha (Homo sapiens) (UniProt Q5VT25); assay: Inhibition of wild-type human partial length MRCKA (L57 to V418 residues) expressed in bacterial expression system assessed as residual activity at 50 nM by Kinomescan method relative to control
[6] = target: Serine/threonine-protein kinase Nek11 (Homo sapiens) (UniProt Q8NG66); assay: Inhibition of wild-type human partial length NEK11 (M1 to E313 residues) expressed in mammalian expression system assessed as residual activity at 50 nM by Kinomescan method relative to control
[7] = target: Fibroblast growth factor receptor 4 (Homo sapiens) (UniProt P22455); assay: Inhibition of wild-type human partial length FGFR4 (G402 to E713 residues) expressed in bacterial expression system assessed as residual activity at 50 nM by Kinomescan method relative to control
[8] = target: Eukaryotic translation initiation factor 2-alpha kinase 1 (Homo sapiens) (UniProt Q9BQI3); assay: Inhibition of wild-type human partial length EIF2AK1 (Q147 to E603 residues) expressed in mammalian expression system assessed as residual activity at 50 nM by Kinomescan method relative to control
Eukaryotic translation initiation factor 2-alpha kinase 1 (Homo sapiens), sequence (Q9BQI3 whole entry, the tested form may be a part): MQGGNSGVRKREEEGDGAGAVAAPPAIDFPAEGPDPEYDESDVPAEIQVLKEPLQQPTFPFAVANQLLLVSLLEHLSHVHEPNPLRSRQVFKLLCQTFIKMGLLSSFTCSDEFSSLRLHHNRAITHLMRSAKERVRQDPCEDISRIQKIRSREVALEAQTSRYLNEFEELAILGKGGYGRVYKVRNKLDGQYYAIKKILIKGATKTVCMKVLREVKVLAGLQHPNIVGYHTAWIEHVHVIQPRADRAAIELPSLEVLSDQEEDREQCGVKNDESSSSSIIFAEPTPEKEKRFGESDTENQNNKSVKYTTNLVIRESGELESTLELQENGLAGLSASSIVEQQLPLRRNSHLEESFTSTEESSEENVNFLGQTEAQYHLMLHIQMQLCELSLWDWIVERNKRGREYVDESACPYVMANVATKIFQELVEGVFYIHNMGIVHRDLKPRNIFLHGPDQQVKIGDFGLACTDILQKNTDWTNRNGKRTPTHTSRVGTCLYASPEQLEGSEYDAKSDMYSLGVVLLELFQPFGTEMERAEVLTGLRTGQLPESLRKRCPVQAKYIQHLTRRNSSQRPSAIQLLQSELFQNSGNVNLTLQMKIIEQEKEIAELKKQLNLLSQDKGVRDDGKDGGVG

[9] = target: Cyclin-dependent kinase 17 (Homo sapiens) (UniProt Q00537); assay: Inhibition of recombinant human full length PCTAIRE2 (M1 to F523 residues) assessed as residual activity at 50 nM by Kinomescan method relative to control
[10] = target: Serine/threonine-protein kinase PRP4 homolog (Homo sapiens) (UniProt Q13523); assay: Inhibition of wild-type human partial length PRP4 (D657 to I1007 residues) expressed in bacterial expression system assessed as residual activity at 50 nM by Kinomescan method relative to control
[11] = target: Bone morphogenetic protein receptor type-1B (Homo sapiens) (UniProt O00238); assay: Inhibition of wild-type human partial length BMPR1B (D178 to L502 residues) expressed in mammalian expression system assessed as residual activity at 50 nM by Kinomescan method relative to control
[12] = target: Cyclin-dependent kinase 2 (Homo sapiens) (UniProt P24941); assay: Inhibition of wild-type human full length CDK2 (M1 to L298 residues) expressed in bacterial expression system assessed as residual activity at 50 nM by Kinomescan method relative to control
[13] = target: Ephrin type-A receptor 5 (Homo sapiens) (UniProt P54756); assay: Inhibition of wild-type human partial length EPHA5 (T627 to V930 residues) expressed in bacterial expression system assessed as residual activity at 50 nM by Kinomescan method relative to control
[14] = target: Ephrin type-A receptor 7 (Homo sapiens) (UniProt Q15375); assay: Inhibition of wild-type human partial length EPHA7 (Y608 to S912 residues) expressed in bacterial expression system assessed as residual activity at 50 nM by Kinomescan method relative to control
Ephrin type-A receptor 7 (Homo sapiens), sequence (Q15375 28-998 limits assumed): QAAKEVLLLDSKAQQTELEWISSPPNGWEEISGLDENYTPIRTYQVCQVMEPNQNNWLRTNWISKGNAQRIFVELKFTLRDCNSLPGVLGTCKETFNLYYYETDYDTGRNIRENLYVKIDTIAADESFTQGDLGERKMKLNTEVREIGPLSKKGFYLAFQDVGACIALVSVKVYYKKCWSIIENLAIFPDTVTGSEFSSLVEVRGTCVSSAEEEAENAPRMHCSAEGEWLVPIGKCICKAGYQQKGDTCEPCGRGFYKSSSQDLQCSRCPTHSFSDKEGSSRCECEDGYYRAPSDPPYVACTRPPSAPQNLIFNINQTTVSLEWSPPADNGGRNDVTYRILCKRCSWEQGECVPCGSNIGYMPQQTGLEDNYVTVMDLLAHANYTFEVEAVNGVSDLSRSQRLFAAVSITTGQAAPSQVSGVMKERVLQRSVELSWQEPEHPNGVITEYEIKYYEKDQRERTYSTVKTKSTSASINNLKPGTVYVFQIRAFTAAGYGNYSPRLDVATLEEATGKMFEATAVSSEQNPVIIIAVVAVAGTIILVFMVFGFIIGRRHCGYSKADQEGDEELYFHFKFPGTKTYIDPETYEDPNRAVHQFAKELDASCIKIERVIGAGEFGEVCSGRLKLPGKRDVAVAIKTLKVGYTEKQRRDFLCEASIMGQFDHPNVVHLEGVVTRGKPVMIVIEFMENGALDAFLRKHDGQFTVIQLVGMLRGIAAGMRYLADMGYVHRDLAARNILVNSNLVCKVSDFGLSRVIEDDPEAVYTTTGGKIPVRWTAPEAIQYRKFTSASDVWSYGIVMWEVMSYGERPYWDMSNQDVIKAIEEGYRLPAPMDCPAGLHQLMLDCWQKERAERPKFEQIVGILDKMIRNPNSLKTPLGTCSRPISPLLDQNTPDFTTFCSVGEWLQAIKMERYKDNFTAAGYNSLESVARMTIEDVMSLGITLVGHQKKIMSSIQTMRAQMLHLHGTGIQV

[15] = target: Ephrin type-B receptor 3 (Homo sapiens) (UniProt P54753); assay: Inhibition of wild-type human partial length EPHB3 (Q599 to T928 residues) expressed in bacterial expression system assessed as residual activity at 50 nM by Kinomescan method relative to control
[16] = target: Mitogen-activated protein kinase 4 (Homo sapiens) (UniProt P31152); assay: Inhibition of wild-type human partial length ERK4 (M1 to L365 residues) expressed in bacterial expression system assessed as residual activity at 50 nM by Kinomescan method relative to control
Mitogen-activated protein kinase 4 (Homo sapiens), sequence (P31152 whole entry, the tested form may be a part): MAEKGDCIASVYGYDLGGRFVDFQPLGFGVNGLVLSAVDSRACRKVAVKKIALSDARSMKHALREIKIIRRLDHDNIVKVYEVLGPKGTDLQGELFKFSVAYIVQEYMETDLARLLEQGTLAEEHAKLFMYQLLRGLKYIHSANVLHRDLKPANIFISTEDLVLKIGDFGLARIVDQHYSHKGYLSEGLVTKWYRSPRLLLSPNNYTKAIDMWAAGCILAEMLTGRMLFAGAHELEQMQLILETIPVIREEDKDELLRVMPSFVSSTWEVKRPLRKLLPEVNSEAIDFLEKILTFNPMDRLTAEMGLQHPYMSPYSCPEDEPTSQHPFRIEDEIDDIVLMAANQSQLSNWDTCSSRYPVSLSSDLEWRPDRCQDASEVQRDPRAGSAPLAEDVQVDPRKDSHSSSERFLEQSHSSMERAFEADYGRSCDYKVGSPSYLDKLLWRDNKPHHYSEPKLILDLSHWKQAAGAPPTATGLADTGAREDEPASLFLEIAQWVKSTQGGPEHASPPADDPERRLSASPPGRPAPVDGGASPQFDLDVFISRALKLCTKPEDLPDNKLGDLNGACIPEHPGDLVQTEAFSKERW

[17] = target: Glycogen synthase kinase-3 beta (Homo sapiens) (UniProt P49841); assay: Inhibition of wild-type human full length GSK3B (M1 to T433 residues) expressed in mammalian expression system assessed as residual activity at 50 nM by Kinomescan method relative to control
Glycogen synthase kinase-3 beta (Homo sapiens), sequence (P49841 whole entry, looked up, the tested form may be a part): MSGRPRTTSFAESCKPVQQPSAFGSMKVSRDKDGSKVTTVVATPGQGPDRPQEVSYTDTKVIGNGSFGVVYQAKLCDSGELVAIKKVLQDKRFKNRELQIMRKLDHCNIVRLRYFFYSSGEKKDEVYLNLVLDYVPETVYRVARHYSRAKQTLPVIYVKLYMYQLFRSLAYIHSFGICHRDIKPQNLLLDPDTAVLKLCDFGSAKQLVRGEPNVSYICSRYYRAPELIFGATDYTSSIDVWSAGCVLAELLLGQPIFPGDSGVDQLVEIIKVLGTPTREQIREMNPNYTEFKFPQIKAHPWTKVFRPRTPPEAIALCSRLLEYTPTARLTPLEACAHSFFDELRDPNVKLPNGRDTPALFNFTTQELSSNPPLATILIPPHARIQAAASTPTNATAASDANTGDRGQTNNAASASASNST

[18] = target: Interleukin-1 receptor-associated kinase 4 (Homo sapiens) (UniProt Q9NWZ3); assay: Inhibition of wild-type human partial length IRAK4 (M1 to S460 residues) expressed in mammalian expression system assessed as residual activity at 50 nM by Kinomescan method relative to control
Interleukin-1 receptor-associated kinase 4 (Homo sapiens), sequence (Q9NWZ3 whole entry, the tested form may be a part): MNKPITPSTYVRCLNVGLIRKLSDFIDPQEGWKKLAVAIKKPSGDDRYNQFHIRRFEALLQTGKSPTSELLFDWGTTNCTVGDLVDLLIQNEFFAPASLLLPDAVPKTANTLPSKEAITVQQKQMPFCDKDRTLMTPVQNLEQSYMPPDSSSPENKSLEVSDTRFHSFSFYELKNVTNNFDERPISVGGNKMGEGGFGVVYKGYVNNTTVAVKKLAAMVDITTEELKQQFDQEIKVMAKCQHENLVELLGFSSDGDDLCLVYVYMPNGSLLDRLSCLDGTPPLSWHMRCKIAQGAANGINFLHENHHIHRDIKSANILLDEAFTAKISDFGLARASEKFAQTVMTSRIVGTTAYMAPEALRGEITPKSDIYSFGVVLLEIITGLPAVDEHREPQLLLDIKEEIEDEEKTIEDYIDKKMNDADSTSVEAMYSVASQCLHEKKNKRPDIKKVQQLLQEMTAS

[19] = target: Tyrosine-protein kinase Mer (Homo sapiens) (UniProt Q12866); assay: Inhibition of wild-type human partial length MER (R557 to L884 residues) expressed in bacterial expression system assessed as residual activity at 50 nM by Kinomescan method relative to control
Tyrosine-protein kinase Mer (Homo sapiens), sequence (Q12866 whole entry, the tested form may be a part): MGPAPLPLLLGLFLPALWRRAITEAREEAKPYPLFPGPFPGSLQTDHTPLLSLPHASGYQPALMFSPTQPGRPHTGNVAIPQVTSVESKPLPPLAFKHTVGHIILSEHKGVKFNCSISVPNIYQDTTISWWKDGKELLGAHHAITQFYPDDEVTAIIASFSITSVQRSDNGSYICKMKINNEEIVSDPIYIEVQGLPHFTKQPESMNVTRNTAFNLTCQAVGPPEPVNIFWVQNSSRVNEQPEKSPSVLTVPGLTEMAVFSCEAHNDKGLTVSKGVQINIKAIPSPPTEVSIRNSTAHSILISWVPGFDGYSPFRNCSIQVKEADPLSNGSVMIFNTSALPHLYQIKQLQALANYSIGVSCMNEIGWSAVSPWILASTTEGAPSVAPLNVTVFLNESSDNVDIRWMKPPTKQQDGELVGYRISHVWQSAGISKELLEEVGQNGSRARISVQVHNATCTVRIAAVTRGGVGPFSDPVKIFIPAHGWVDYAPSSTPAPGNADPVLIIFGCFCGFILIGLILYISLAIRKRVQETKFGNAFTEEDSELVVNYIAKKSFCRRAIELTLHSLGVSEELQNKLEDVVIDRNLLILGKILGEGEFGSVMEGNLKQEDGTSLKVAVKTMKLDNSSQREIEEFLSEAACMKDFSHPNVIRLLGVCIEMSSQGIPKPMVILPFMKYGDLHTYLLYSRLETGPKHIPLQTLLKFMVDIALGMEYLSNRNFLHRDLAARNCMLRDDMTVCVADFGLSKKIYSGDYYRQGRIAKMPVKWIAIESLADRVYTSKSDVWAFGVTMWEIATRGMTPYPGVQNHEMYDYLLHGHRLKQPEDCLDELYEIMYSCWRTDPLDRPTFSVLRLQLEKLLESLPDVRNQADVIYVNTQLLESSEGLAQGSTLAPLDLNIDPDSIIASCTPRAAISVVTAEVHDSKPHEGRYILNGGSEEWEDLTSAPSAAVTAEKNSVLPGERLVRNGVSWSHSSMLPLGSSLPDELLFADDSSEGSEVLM

[20] = target: Serine/threonine-protein kinase Nek7 (Homo sapiens) (UniProt Q8TDX7); assay: Inhibition of wild-type human full length NEK7 (M1 to S302 residues) expressed in bacterial expression system assessed as residual activity at 50 nM by Kinomescan method relative to control
[21] = target: Phosphatidylinositol 4,5-bisphosphate 3-kinase catalytic subunit beta isoform (Homo sapiens) (UniProt P42338); assay: Inhibition of wild-type human partial length PI3KCB (P118 to S1070 residues) expressed in mammalian expression system assessed as residual activity at 50 nM by Kinomescan method relative to control
[22] = target: Myosin light chain kinase, smooth muscle (Homo sapiens) (UniProt Q15746); assay: Inhibition of wild-type human full length SMMLCK (M854 to E1845 residues) expressed in mammalian expression system assessed as residual activity at 50 nM by Kinomescan method relative to control
[23] = target: STE20/SPS1-related proline-alanine-rich protein kinase (Homo sapiens) (UniProt Q9UEW8); assay: Inhibition of wild-type human partial length STLK3 (P43 to I357 residues) expressed in mammalian expression system assessed as residual activity at 50 nM by Kinomescan method relative to control
[24] = target: Testis-specific serine/threonine-protein kinase 1 (Homo sapiens) (UniProt Q9BXA7); assay: Inhibition of wild-type human full length TSSK1B (M1 to Q367 residues) expressed in bacterial expression system assessed as residual activity at 50 nM by Kinomescan method relative to control

Structure (SMILES) | Activity [1] [%] | Activity (Plasmodium falciparum) [%] | Activity [2] [%] | Activity [3] [%] | Activity [4] [%] | Activity [5] [%] | Activity [6] [%] | Activity [7] [%] | Activity [8] [%] | Activity [9] [%] | Activity [10] [%] | Activity [11] [%] | Activity [12] [%] | Activity [13] [%] | Activity [14] [%] | Activity [15] [%] | Activity [16] [%] | Activity [17] [%] | Activity [18] [%] | Activity [19] [%] | further results
COc1ccc(-c2cc3c(N[C@@H]4CC[C@](C)(N)C4(C)C)c(C(N)=O)cnn3c2)cn1 | 82 | 100 | 92 | 100 | 86 | 97 | 99 | 91 | 96 | 100 | 97 | 100 | 88 | 100 | 100 | 100 | 100 | 86 | 100 | 100 | Activity [20]: 100%; Activity [21]: 100%; Activity [22]: 87%; Activity [23]: 84%; Activity [24]: 100%
CC1(C)[C@H](Nc2c(C(N)=O)cnn3cc(-c4ccccc4)cc23)CC[C@]1(C)N | 29 | 67 | 71 | 72 | 73 | 74 | 87 | 88 | 94 | 95 | 95 | 100 | 100 | 100 | 100 | 100 | 100 | 100 | 100 | 100 | Activity [20]: 100%; Activity [21]: 100%; Activity [22]: 100%; Activity [23]: 100%; Activity [24]: 100%
